# Source: paper PMC8717895 (Neuro-oncology Advances, 2021)
# “Also recorded” adds a separate entry of the source. Read-outs that look alike come from different tables or passages of the source. Marks after values point to notes of the source that are not given here.
# Assay type: in vivo, human
# Conditions: stratum A
# [1] = Level 3 (170 mg/m^2), Grade 1/2
# [2] = Level 3 (170 mg/m^2), Grade 3/4
# [3] = Level 4 (220 mg/m^2), Grade 1/2
# [4] = Level 4 (220 mg/m^2), Grade 3/4
structure (smiles),measurement,setting,value
CC1(COc2ccc3c(c2)ncn3-c2ccc3cccc(N4CCC(N)CC4)c3n2)COC1 [crenolanib],Abdominal pain,[1],2 (33%)
same,Alkaline phosphatase increased,[1],2 (33%)
same,Anemia,[1],3 (50%)
same,Anorexia,[1],3 (50%)
same,Diarrhea,[1],3 (50%)
same,Dyspepsia,[1],1 (17%)
same,GGT increased,[1],4 (67%)
same,Headache,[1],0
same,Hematuria,[1],3 (50%)
same,Hypermagnesemia,[1],3 (50%)
same,Hypernatremia,[1],2 (33%)
same,Hypoalbuminemia,[1],4 (67%)
same,Hypocalcemia,[1],1 (17%)
same,Hypokalemia,[1],2 (33%)
same,Hypophosphatemia,[1],3 (50%)
same,Lipase increased,[1],1 (17%)
same,Lymphocyte count decreased,[1],2 (33%)
same,Nausea,[1],5 (83%)
same,Neutrophil count decreased,[1],1 (17%)
same,Platelet count decreased,[1],2 (33%)
same,Proteinuria,[1],5 (83%)
same,Serum amylase increased,[1],3 (50%)
same,Stomach pain,[1],0
same,Vomiting,[1],6 (100%)
same,White blood cell decreased,[1],4 (67%)
same,ALT increased,[2],2 (33%)
same,AST increased,[2],1 (17%)
same,Abdominal pain,[2],0
same,Alkaline phosphatase increased,[2],0
same,Anemia,[2],0
same,Anorexia,[2],0
same,Diarrhea,[2],0
same,Dyspepsia,[2],0
same,GGT increased,[2],2 (33%)^a
same,Headache,[2],0
same,Hematuria,[2],0
same,Hypermagnesemia,[2],0
same,Hypernatremia,[2],0
same,Hypoalbuminemia,[2],0
same,Hypocalcemia,[2],0
same,Hypokalemia,[2],2 (33%)
same,Hypophosphatemia,[2],0
same,Lipase increased,[2],0
same,Lymphocyte count decreased,[2],4 (67%)
same,Nausea,[2],0
same,Neutrophil count decreased,[2],0
same,Platelet count decreased,[2],0
same,Proteinuria,[2],0
same,Serum amylase increased,[2],0
same,Stomach pain,[2],0
same,Vomiting,[2],0
same,White blood cell decreased,[2],1 (17%)
same,ALT increased,[3],6 (75%)
same,AST increased,[3],7 (88%)
same,Abdominal pain,[3],1 (13%)
same,Alkaline phosphatase increased,[3],1 (13%)
same,Anemia,[3],6 (75%)
same,Anorexia,[3],2 (25%)
same,Diarrhea,[3],4 (50%)
same,Dyspepsia,[3],0
same,GGT increased,[3],6 (75%)
same,Headache,[3],1 (13%)
same,Hematuria,[3],2 (25%)
same,Hypermagnesemia,[3],5 (63%)
same,Hypernatremia,[3],0
same,Hypoalbuminemia,[3],6 (75%)
same,Hypocalcemia,[3],3 (38%)
same,Hypokalemia,[3],3 (38%)
same,Hypophosphatemia,[3],6 (75%)
same,Lipase increased,[3],2 (25%)
same,Lymphocyte count decreased,[3],0
same,Nausea,[3],7 (88%)
same,Neutrophil count decreased,[3],1 (13%)
same,Platelet count decreased,[3],3 (38%)
same,Proteinuria,[3],5 (63%)
same,Serum amylase increased,[3],3 (38%)
same,Stomach pain,[3],0
same,Vomiting,[3],8 (100%)
same,White blood cell decreased,[3],7 (88%)
same,ALT increased,[4],2 (25%)^a
same,AST increased,[4],0
same,Abdominal pain,[4],0
same,Alkaline phosphatase increased,[4],0
same,Anemia,[4],0
same,Anorexia,[4],0
same,Diarrhea,[4],0
same,Dyspepsia,[4],0
same,GGT increased,[4],1 (13%)^a
same,Headache,[4],0
same,Hematuria,[4],0
same,Hypermagnesemia,[4],0
same,Hypernatremia,[4],0
same,Hypoalbuminemia,[4],0
same,Hypocalcemia,[4],1 (13%)
same,Hypokalemia,[4],2 (25%)
same,Hypophosphatemia,[4],1 (13%)
same,Lipase increased,[4],0
same,Lymphocyte count decreased,[4],8 (100%)
same,Nausea,[4],0
same,Neutrophil count decreased,[4],0
same,Platelet count decreased,[4],0
same,Proteinuria,[4],0
same,Serum amylase increased,[4],0
same,Stomach pain,[4],0
same,Vomiting,[4],0
same,White blood cell decreased,[4],0
same,DLTs attributable to crenolanib during the DLT observation period,dose level 1,grade 4 neutropenia
same,DLTs attributable to crenolanib during the DLT observation period,dose level 3,grade 3 gamma-glutamyl transferase (GGT) elevation
same,DLTs attributable to crenolanib during the DLT observation period,dose level 4,grade 3 GGT elevation; also recorded: grade 3 ALT elevation
same,"patients having grade 3/4 elevations of ALT, AST, GGT, or alkaline phosphatase",during and after the DLT period,28%
same,Maximum tolerated dose (MTD),"once daily during and after RT, pediatric",170 mg/m^2
same,Most common grade 3/4 toxicity,resolved with drug interruption,leukopenia
